From patent US7994094B2, “N-pyridylpiperidine compound, method for producing the same, and pest control agent” (Otsuka Agritechno Co., Ltd., priority 2006, dated 2011) come the findings set out here.

The subject of data set [1] is female adult Kanzawa spider mites. As to the kind of experiment: whole plant or invertebrate. The class given is in vivo. As to conditions: Tetranychus kanzawai, in Phaseolus vulgaris, 48 h, read-out: mortality of the female adult Kanzawa spider mites. The procedure: A kidney bean leaf (3.5 cm×4.5 cm) was placed with the rear side up on the sufficiently soaked non-woven fabric. Thereafter, 20 female adult Kanzawa spider mites were released on the kidney bean leaf on the cup. […] The mortality of the female adult Kanzawa spider mites was determined two days after the spraying.

For data set [2], the system named is female adult citrus red mites. Briefly: whole plant or invertebrate. The format is in vivo. As to conditions: Panonychus citri, in Citrus x aurantium, 48 h, read-out: mortality of the female adult citrus red mites. The procedure:
Thereafter, 10 female adult citrus red mites were released on the Citrus aurantium leaf on the cup. The next day, a miticidal formulation containing a compound of the invention (100 ppm) was prepared by adding an aqueous solution of Sorpol 355 (manufactured by Toho Kagagu Co., Ltd.) to an acetone solution containing the compound of the invention. […] The mortality of the female adult citrus red mites was determined two days after the spraying.

The test system of data set [3] is citrus rust mites. Particulars: sprayed on Citrus aurantium leaf. From the text: A plastic cup (trade name: KP-120, manufactured by Konoike Plastic Co., Ltd., Iwata) was filled with tap water, and covered with a lid having a notch cut therein. A piece (4.5×5.5 cm) of non-woven fabric having a slit of about 4 cm in length, the slit being made parallel to the longer side of the fabric at a distance of 1 cm from the edge, was placed on the lid. The 4-cm long, 1-cm wide portion of the fabric was suspended inside the plastic cup through the notch. A Citrus aurantium leaf (3 cm×3 cm) was placed with the front side up on the sufficiently soaked non-woven fabric. To prevent drying and escape of mites, the leaf was covered with a filter paper (diameter: 5 cm, No. 2, Advantec Toyo Kaisha, Ltd.) having two holes of 10 mm in diameter. A leaf on which the citrus rust mites were bred was cut out into pieces with a cork borer (diameter: 2 mm), and the leaf pieces were placed with the front side up on the Citrus aurantium leaf on the non-woven fabric. The next day, the dry leaf pieces were removed. […] Subsequently, 4 ml of a miticidal formulation containing a test compound (100 ppm or 200 ppm), which was prepared according to Test Example 1, was sprayed over the leaf with a spray gun (PB-308 Piece Bon, Olympos, Osaka; 1 kgf/cm^2). […] The mortality of the citrus rust mites was determined two days after the spraying. […]

Data set [4] has as its system Two-spotted spider mites (eggs). As to the kind of experiment: Ovicidal test on two-spotted spider mites (Test Example 2). As to conditions: 500 ppm sprayed on kidney bean leaf; six days after the spraying. The format is in vivo, Tetranychus urticae. On the procedure:
A kidney bean leaf (about 3.5×4.5 cm) was placed on the sufficiently soaked non-woven fabric. Female adult two-spotted spider mites (about 5 mites) were released on the leaf, and the leaf was placed in a thermostatic chamber (25±2° C., 16L8D). […] The ovicidal rate of the two-spotted spider mites was determined six days after the spraying.

For data set [5], the system named is Two-spotted spider mites. Briefly: whole plant or invertebrate. The class given is in vivo. Particulars: Tetranychus urticae, in Phaseolus vulgaris, 48 h, read-out: mortality of the two-spotted spider mites, 500 ppm sprayed on kidney bean leaf; two days after the spraying. The procedure:
A kidney bean leaf (about 3.5×4.5 cm) was placed on the sufficiently soaked non-woven fabric. Two-spotted spider mites (about twenty mites) were released on the leaf, and the leaf was placed in a thermostatic chamber (25±2° C., 16L8D). The next day, a miticidal formulation containing a compound of the invention (500 ppm) was prepared by adding an aqueous solution of Sorpol 355 (manufactured by Toho Kagagu Co., Ltd.) (100 ppm) to an acetone solution containing the compound of the invention. […] The mortality of the two-spotted spider mites was determined two days after the spraying.

Molecules are shown by their SMILES. Like-named read-outs stand apart in the source and are kept apart here.

In turn, `C[C@@H]1CN(c2ccc(C(F)(F)F)cn2)CC[C@H]1Oc1cc(-c2cc(F)cc(F)c2)n[nH]1` (relative stereo) [1a-296, trans-4-[3-(3,5-difluorophenyl)pyrazol-5-yloxy]-3-methyl-1-[5-(trifluoromethyl)-2-pyridyl]-piperidine] showed a melting point of 136.9 to 137.6 °C.

Take `C[C@@H]1CN(c2ccc(C(F)(F)F)cn2)CC[C@H]1Oc1cc(-c2cc(F)cc(F)c2)nn1CC1OCCO1` (relative stereo) [1a-301, trans-4-[1-(1,3-dioxolan-2-yl)methyl-3-(3,5-difluorophenyl)pyrazol-5-yloxy]-3-methyl-1-[5-(trifluoromethyl)-2-pyridyl]-piperidine]: the mortality at 100 ppm in data set [1] and in data set [2] was 100% each time.

Regarding `CCCCn1nc(C(F)(F)F)cc1OC1CCN(c2ccc(C(F)(F)F)cn2)CC1` [1a-17, 4-[1-butyl-3-(trifluoromethyl)pyrazol-5-yloxy]-1-[5-(trifluoromethyl)-2-pyridyl]-piperidine], in data set [1], the mortality at 100 ppm amounted to 100%.

Take `CC(C)(C)n1nc(C(F)(F)F)cc1OC1CCN(c2ccc(C(F)(F)F)cn2)CC1` [1a-26]: the “Insect mortality (%)” value in data set [3] (100 ppm test compound) was 100%; in data set [3] (200 ppm test compound), 67%.

`FC(F)(F)c1ccc(N2CCC(Oc3cc(C(F)(F)F)nn3-c3cccc(Cl)c3)CC2)nc1` [1a-62, 4-[1-(3-chlorophenyl)-3-(trifluoromethyl)pyrazol-5-yloxy]-1-[5-(trifluoromethyl)-2-pyridyl]-piperidine]: the mortality at 100 ppm in data set [2] came out at 100%.

Consider `Cn1nc(-c2cc(Cl)cc(Cl)c2)cc1OC1CCN(c2ccc(C(F)(F)F)cn2)CC1` [1a-107, 4-[3-(3,5-dichlorophenyl)-1-methylpyrazol-5-yloxy]-1-[5-(trifluoromethyl)-2-pyridyl]-piperidine], for which the melting point is 161.8 to 162.4 °C.

Turning to `Cn1nc(C(F)(F)F)cc1OC1CCN(c2ccc(C(F)(F)F)cn2)CC1(C)C` (centres unmarked) [1a-215, 3,3-dimethyl-4-[1-methyl-3-(trifluoromethyl)pyrazol-5-yloxy]-1-[5-(trifluoromethyl)-2-pyridyl]-piperidine], the melting point was in the range of 102.5 to 103 °C.

In turn, `CCCCn1nc(C(F)(F)F)cc1S(=O)(=O)C1CCN(c2ccc(C(F)(F)F)cn2)CC1` [1a-218, 4-[1-butyl-3-(trifluoromethyl)pyrazol-5-ylsulfonyl]-1-[5-(trifluoromethyl)-2-pyridyl]-piperidine] came in with a melting point of 105.3 to 105.6 °C.

`CCCCn1nc(-c2ccc(F)cc2)cc1OC1CCN(c2ccc(C(F)(F)F)cn2)CC1` [1a-236]: the “ovicidal rate of the two-spotted spider mites” value (from here on “ovicidal rate”) in data set [4] is 100%.

Take `FC(F)(F)c1ccc(N2CCC(Oc3cc(C(F)(F)F)n[nH]3)CC2)nc1` [1a-245, 4-[3-(trifluoromethyl)pyrazol-5-yloxy]-1-[5-(trifluoromethyl)-2-pyridyl]-piperidine]: the melting point lay within 133.8 to 134.5 °C.

Consider `Cc1ccc(-n2nc(C(F)(F)F)cc2OC2CCN(c3ccc(C(F)(F)F)cn3)CC2)nc1` [1a-247], for which, in data set [4], the “ovicidal rate” value worked out at 100%.

On to `CCCCn1nc(-c2cc(Cl)ncc2Cl)cc1OC1CCN(c2ccc(C(F)(F)F)cn2)CC1` [1a-249], for which, in data set [4], the “ovicidal rate” value came to 100%.

Turning to `CCOC(=O)n1nc(C(F)(F)F)cc1OC1CCN(c2ccc(C(F)(F)F)cn2)CC1` [1a-288, 4-[1-ethoxycarbonyl-3-(trifluoromethyl)pyrazol-5-yloxy]-1-[5-(trifluoromethyl)-2-pyridyl]-piperidine], the mortality at 500 ppm in data set [5] was not below 50%.

With `FC(F)(F)CCCn1nc(OC2CCN(c3ccc(C(F)(F)F)cn3)CC2)cc1C(F)(F)F` [1b-49], in data set [4], the “ovicidal rate” value amounted to 100%.

Regarding `COC(Cn1nc(O[C@@H]2[C@@H]3CC[C@H]2CN(c2ccc(C(F)(F)F)cn2)C3)cc1C(F)(F)F)OC` [1b-52, 8β-[1-(2,2-dimethoxy)ethyl-5-(trifluoromethyl)pyrazol-3-yloxy]-1-[5-(trifluoromethyl)-2-pyridyl]-3-azabicyclo[3.2.1]octane], the mortality at 500 ppm in data set [5] was not below 50%.
